Results taken from patent US6696497B2, “Fungicidal mixtures” (BASF Aktiengesellschaft, priority 2000, dated 2004).

Columns and labels:
[1] = system: Plasmopara viticola on grapes; assay: Fungicidal efficacy (3 day residual) on grapes, greenhouse; format: in vivo; settings: single compound
Procedure: (§1) The trials are carried out under greenhouse conditions in residual or curative applications. The fungicides are applied in single treatments, or in a combination comprising a benzophenone of formula I and a compound of formula II. The compounds are applied in form of an aqueous spray mix obtained from concentrated formulation or the technical material.
(§2) Grape plants of variety “Mueller-Thurgau” are grown in the greenhouse from small stake cuttings. When about 40 cm high, the number of leaves is reduced to 4 fully expanded leaves per plant.
(§3) The compounds are dissolved in acetone with 0.5% TRITON™ X155 (an alkylaryl polyether alcohol), and sprayed in concentrations and combinations as given in tables I and II with a three nozzle overhead fungicide sprayer to near run-off. Plants are then allowed to air-dry.
(§4) Inoculation precedes treatment in the case of curative evaluations and follows treatment in case of residual evaluations.
(§5) For inoculation an aqueous spore suspension of the pathogen is applied to the plant and the plants are kept 1-2 days in a moist infection chamber before being returned to the greenhouse where they are maintained by bottom watering.
(§6) Disease on the foliage as percent leaf area with disease symptoms/signs is evaluated about 7 days after inoculation. [formula]
(§7) Assessments of the diseases took place at the indicated day after the application of the compounds. Percent infected leaf area infected was evaluated. The efficacy of the compounds/compounds mixtures to control the diseases was calculated by using the formula given above.
(§8) Synergy was calculated using the % disease control values of specific treatments for the two COLBY formula given hereinabove.
Fungicidal efficacy of the mixture of BP-4+iprovalicarb (3 day residual) against Plasmopara viticola on grapes
tank mix was obtained from technical materials of BP-4 and iprovalicarb.

[2] = system: Plasmopara viticola on grapes; assay: Fungicidal efficacy (2 day curative) on grapes, greenhouse; format: in vivo; settings: single compound
Procedure: as §1, §2, §3, §4, §5, §6, §7, §8
Fungicidal efficacy of the mixture of BP-4+iprovalicarb (2 day curative) against Plasmopara viticola on grapes
The tank mix was obtained from technical materials of BP-4 and iprovalicarb.

Structure (SMILES): COc1cc(C)c(C(=O)c2c(OC)ccc(Br)c2C)c(OC)c1OC [BP-4, 5-bromo-2′,6-dimethyl-2,4′,5′,6′-tetramethoxybenzophenone]
- Observed Efficacy ([1]; dose rate 0.037 ppm): 0%
- Observed Efficacy ([1]; dose rate 0.11 ppm): 0%
- Observed Efficacy ([1]; dose rate 0.33 ppm): 0%
- Observed Efficacy ([1]; dose rate 1 ppm): 0%
- Observed Efficacy ([1]; dose rate 3 ppm): 1%
- Observed Efficacy ([1]; dose rate 9 ppm): 4%
- Observed Efficacy ([1]; dose rate 27 ppm): 6%
- Observed Efficacy ([2]; dose rate 0.037 ppm): 0%
- Observed Efficacy ([2]; dose rate 0.11 ppm): 0%
- Observed Efficacy ([2]; dose rate 0.33 ppm): 0%
- Observed Efficacy ([2]; dose rate 1 ppm): 0%
- Observed Efficacy ([2]; dose rate 3 ppm): 0%
- Observed Efficacy ([2]; dose rate 9 ppm): 0%
- Observed Efficacy ([2]; dose rate 27 ppm): 2%

Structure (SMILES): Cc1ccc(C(C)NC(=O)C(NC(=O)OC(C)C)C(C)C)cc1 (stereo not drawn) [iprovalicarb, [2-methyl-1-[1-(4-methylphenyl)-ethylaminocarbonyl]-propyl]-carbamic acid isopropyl ester, reference compound]
- Observed Efficacy ([1]; dose rate 0.11 ppm): 0%
- Observed Efficacy ([1]; dose rate 0.33 ppm): 3%
- Observed Efficacy ([1]; dose rate 1 ppm): 11%
- Observed Efficacy ([1]; dose rate 3 ppm): 55%
- Observed Efficacy ([1]; dose rate 9 ppm): 90%
- Observed Efficacy ([2]; dose rate 0.11 ppm): 0%
- Observed Efficacy ([2]; dose rate 0.33 ppm): 2%
- Observed Efficacy ([2]; dose rate 1 ppm): 11%
- Observed Efficacy ([2]; dose rate 3 ppm): 63%
- Observed Efficacy ([2]; dose rate 9 ppm): 91%
